The target of this test is Factor XIa (Homo sapiens (Human), UniProt P03951). The experiment in a line: Factor XIa enzyme inhibition assay (dose response, fluorogenic AMC substrate). In kind it is biochemical. Conditions: read-out: hFXIa IC50. The method in brief:
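Human FXIa at 0.25 nM final with 50 μM final PyroGlu-Pro-Arg-AMC in 20 mM Hepes pH 7.4, 150 mM NaCl, 0.02% Tween 20. Two-fold serial compound dilutions; fluorescence read every minute for 30 min at 30° C. IC50 from a four-parameter Hill fit.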
Factor XIa, sequence (P03951 388-625): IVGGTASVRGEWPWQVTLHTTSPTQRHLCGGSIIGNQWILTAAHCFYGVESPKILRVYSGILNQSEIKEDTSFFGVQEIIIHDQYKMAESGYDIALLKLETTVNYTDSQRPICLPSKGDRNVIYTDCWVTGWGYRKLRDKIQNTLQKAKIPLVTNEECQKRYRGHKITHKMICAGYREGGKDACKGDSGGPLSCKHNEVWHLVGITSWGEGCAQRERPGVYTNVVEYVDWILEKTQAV
Factor XIa, sequence (P03951 19-387 partner): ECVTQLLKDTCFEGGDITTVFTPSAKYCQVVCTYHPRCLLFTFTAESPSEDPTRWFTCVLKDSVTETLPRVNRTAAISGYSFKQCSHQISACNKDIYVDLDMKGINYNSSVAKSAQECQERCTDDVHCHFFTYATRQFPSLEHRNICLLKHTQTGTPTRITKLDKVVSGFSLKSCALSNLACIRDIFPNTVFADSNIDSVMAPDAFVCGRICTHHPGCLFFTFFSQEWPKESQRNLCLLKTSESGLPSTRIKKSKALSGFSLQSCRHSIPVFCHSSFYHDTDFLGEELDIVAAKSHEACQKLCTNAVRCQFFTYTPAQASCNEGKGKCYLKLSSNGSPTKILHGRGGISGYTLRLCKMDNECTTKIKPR
Usually IC50 stands for the concentration at which inhibition is half-maximal. For the compound `CC[C@@H](NC(=O)N1C(=O)[C@H](Cc2cc(C)nc(N)c2)[C@H]1C(=O)N(C)C1=NCC(=O)N1C)c1ccccc1` [Compound 1-148, (2S,3R)-3-((2-amino-6-methylpyridin-4-yl)methyl)-N2-(5-oxo-1-methyl-4,5-dihydro-1H-imidazol-2-yl)-N1-((R)-1-phenylpropyl)-N2-methyl-4-oxoazetidine-1,2-dicarboxamide], the 50% inhibitory concentration (IC50) was 0.1 to 1 µM. `CC[C@@H](NC(=O)N1C(=O)[C@H](Cc2cc(C)nc(N)c2)[C@H]1C(=O)N(C)c1ccnn1C)c1cccc(C)c1C` [Compound 1-149, (2S,3R)-3-((2-amino-6-methylpyridin-4-yl)methyl)-N2-(1-methyl-1H-pyrazol-5-yl)-N1-((R)-1-(2,3-dimethylphenyl)propyl)-N2-methyl-4-oxoazetidine-1,2-dicarboxamide]: the IC50 lay within 0.01 to 0.1 µM. In the case of `CC[C@@H](NC(=O)N1C(=O)[C@H](Cc2cc(C)nc(N)c2)[C@H]1C(=O)N(C)c1ccnn1C)c1cccc(F)c1C` [Compound 1-150, (2S,3R)-3-((2-amino-6-methylpyridin-4-yl)methyl)-N2-(1-methyl-1H-pyrazol-5-yl)-N1-((R)-1-(3-fluoro-2-methylphenyl)propyl)-N2-methyl-4-oxoazetidine-1,2-dicarboxamide], the IC50 is less than 0.01 µM. Consider `CC[C@@H](NC(=O)N1C(=O)[C@H](Cc2cc(C)nc(N)c2)[C@H]1C(=O)N(C)c1ccnn1C)c1ccc(F)c(C)c1` [Compound 1-153, (2S,3R)-3-((2-amino-6-methylpyridin-4-yl)methyl)-N2-(1-methyl-1H-pyrazol-5-yl)-N1-((R)-1-(4-fluoro-3-methylphenyl)propyl)-N2-methyl-4-oxoazetidine-1,2-dicarboxamide], for which the IC50 is less than 0.01 µM. Regarding `CC[C@@H](NC(=O)N1C(=O)[C@H](Cc2cc(C)nc(N)c2)[C@H]1C(=O)N(C)c1ccnn1C)c1ccc(C)cc1` [Compound 1-154, (2S,3R)-3-((2-amino-6-methylpyridin-4-yl)methyl)-N2-(1-methyl-1H-pyrazol-5-yl)-N1-((R)-1-(4-methylphenyl)propyl)-N2-methyl-4-oxoazetidine-1,2-dicarboxamide], the IC50 is less than 0.01 µM. For `CC[C@@H](NC(=O)N1C(=O)[C@H](Cc2cc(C)nc(N)c2)[C@H]1C(=O)N(C)c1ccnn1C)c1ccc(F)cc1` [Compound 1-156, (2S,3R)-3-((2-amino-6-methylpyridin-4-yl)methyl)-N2-(1-methyl-1H-pyrazol-5-yl)-N1-((R)-1-(4-fluorophenyl)propyl)-N2-methyl-4-oxoazetidine-1,2-dicarboxamide] the value was less than 0.01 µM; for `CC[C@@H](NC(=O)N1C(=O)[C@H](Cc2cc(C)nc(N)c2)[C@H]1C(=O)N(C)c1ccnn1C)c1ccc(Cl)cc1` [Compound 1-157, (2S,3R)-3-((2-amino-6-methylpyridin-4-yl)methyl)-N2-(1-methyl-1H-pyrazol-5-yl)-N1-((R)-1-(4-chlorophenyl)propyl)-N2-methyl-4-oxoazetidine-1,2-dicarboxamide], 0.01 to 0.1 µM.

`CC[C@@H](NC(=O)N1C(=O)[C@H](Cc2cc(C)nc(N)c2)[C@H]1C(=O)N(C)c1ccnn1C)c1ccc(F)cc1C` [Compound 1-159, (2S,3R)-3-((2-amino-6-methylpyridin-4-yl)methyl)-N2-(1-methyl-1H-pyrazol-5-yl)-N1-((R)-1-(4-fluoro-2-methylhenyl)propyl)-N2-methyl-4-oxoazetidine-1,2-dicarboxamide]: the IC50 is less than 0.01 µM. In the case of `CC[C@@H](NC(=O)N1C(=O)[C@H](Cc2cc(C)nc(N)c2)[C@H]1C(=O)N(C)c1ccnn1C)c1ccc(C)cc1F` [Compound 1-160, (2S,3R)-3-((2-amino-6-methylpyridin-4-yl)methyl)-N2-(1-methyl-1H-pyrazol-5-yl)-N1-((R)-1-(2-fluoro-4-methylphenyl)propyl)-N2-methyl-4-oxoazetidine-1,2-dicarboxamide], the IC50 is less than 0.01 µM. Consider `CC[C@@H](NC(=O)N1C(=O)[C@H](Cc2cc(C)nc(N)c2)[C@H]1C(=O)N(C)c1ccnn1C)c1ccc(C)cc1C` [Compound 1-161, (2S,3R)-3-((2-amino-6-methylpyridin-4-yl)methyl)-N2-(1-methyl-1H-pyrazol-5-yl)-N1-((R)-1-(2,4-dimethylphenyl)propyl)-N2-methyl-4-oxoazetidine-1,2-dicarboxamide], for which the IC50 was less than 0.01 µM. For `CC[C@@H](NC(=O)N1C(=O)[C@H](Cc2cc(C)nc(N)c2)[C@H]1C(=O)N(C)c1ccnn1C)c1cc(C)ccc1F` [Compound 1-164, (2S,3R)-3-((2-amino-6-methylpyridin-4-yl)methyl)-N2-(1-methyl-1H-pyrazol-5-yl)-N1-((R)-1-(2-fluoro-5-methylphenyl)propyl)-N2-methyl-4-oxoazetidine-1,2-dicarboxamide], the IC50 is less than 0.01 µM. `CC[C@@H](NC(=O)N1C(=O)[C@H](Cc2ccnc(N)c2)[C@H]1C(=O)N(C)c1nncn1C)c1ccccc1` [Compound 1-165, (2S,3R)-3-((2-aminopyridin-4-yl)methyl)-N2-(4-methyl-4H-1,2,4-triazol-3-yl)-N1-((R)-1-phenylpropyl)-N2-methyl-4-oxoazetidine-1,2-dicarboxamide]: the IC50 fell in the range of 0.01 to 0.1 µM. As to `CC[C@@H](NC(=O)N1C(=O)[C@H](Cc2cc(C)nc(N)c2)[C@H]1C(=O)N(C)c1ccnn1C)c1cc(C)ccc1C` [Compound 1-166, (2S,3R)-3-((2-amino-6-methylpyridin-4-yl)methyl)-N2-(1-methyl-1H-pyrazol-5-yl)-N1-((R)-1-(2,5-dimethylphenyl)propyl)-N2-methyl-4-oxoazetidine-1,2-dicarboxamide], the IC50 is less than 0.01 µM. In the case of `CC[C@@H](NC(=O)N1C(=O)[C@H](Cc2ccnc(N)c2)[C@H]1C(=O)N(C)c1nnco1)c1ccccc1` [Compound 1-167, (2S,3R)-3-((2-aminopyridin-4-yl)methyl)-N2-(1,3,4-oxadiazol-2-yl)-N1-((R)-1-phenylpropyl)-N2-methyl-4-oxoazetidine-1,2-dicarboxamide], the concentration for half-maximal inhibition (IC50) is less than 0.01 µM.

In the case of `CC[C@@H](NC(=O)N1C(=O)[C@H](Cc2ccnc(N)c2)[C@H]1C(=O)N(C)c1nncs1)c1ccccc1` [Compound 1-168, (2S,3R)-3-((2-aminopyridin-4-yl)methyl)-N2-(1,3,4-thiadiazol-2-yl)-N1-((R)-1-phenylpropyl)-N2-methyl-4-oxoazetidine-1,2-dicarboxamide], the IC50 was less than 0.01 µM. In the case of `CC[C@@H](NC(=O)N1C(=O)[C@H](Cc2cc(C)nc(N)c2)[C@H]1C(=O)N(C)c1cnn(C)c1)c1ccc(F)cc1` [Compound 1-169, (2S,3R)-3-((2-amino-6-methylpyridin-4-yl)methyl)-N2-(1-methyl-1H-pyrazol-4-yl)-N1-((R)-1-(4-fluorophenyl)propyl)-N2-methyl-4-oxoazetidine-1,2-dicarboxamide], the IC50 is 0.01 to 0.1 µM. With `CC[C@@H](NC(=O)N1C(=O)[C@H](Cc2cc(C)nc(N)c2)[C@H]1C(=O)N(C)c1cnn(C)c1)c1ccc(Cl)cc1` [Compound 1-170, (2S,3R)-3-((2-amino-6-methylpyridin-4-yl)methyl)-N2-(1-methyl-1H-pyrazol-4-yl)-N1-((R)-1-(4-chlorophenyl)propyl)-N2-methyl-4-oxoazetidine-1,2-dicarboxamide], the IC50 was 0.01 to 0.1 µM. As for `CC[C@@H](NC(=O)N1C(=O)[C@H](Cc2cc(C)nc(N)c2)[C@H]1C(=O)N(C)c1cnn(C)c1)c1ccc(F)c(C)c1` [Compound 1-171, (2S,3R)-3-((2-amino-6-methylpyridin-4-yl)methyl)-N2-(1-methyl-1H-pyrazol-4-yl)-N1-((R)-1-(4-fluoro-3-methylphenyl)propyl)-N2-methyl-4-oxoazetidine-1,2-dicarboxamide], the IC50 lay in the range of 0.01 to 0.1 µM. `CC[C@@H](NC(=O)N1C(=O)[C@H](Cc2cc(C)nc(N)c2)[C@H]1C(=O)N(C)c1cnn(C)c1)c1ccc(C)c(F)c1` [Compound 1-172, (2S,3R)-3-((2-amino-6-methylpyridin-4-yl)methyl)-N2-(1-methyl-1H-pyrazol-4-yl)-N1-((R)-1-(3-fluoro-4-methylphenyl)propyl)-N2-methyl-4-oxoazetidine-1,2-dicarboxamide]: the IC50 was less than 0.01 µM.

As to `CC[C@@H](NC(=O)N1C(=O)[C@H](Cc2cc(C)nc(N)c2)[C@H]1C(=O)N(C)c1cnn(C)c1)c1cccc(C)c1C` [Compound 1-173, (2S,3R)-3-((2-amino-6-methylpyridin-4-yl)methyl)-N2-(1-methyl-1H-pyrazol-4-yl)-N1-((R)-1-(2,3-dimethylphenyl)propyl)-N2-methyl-4-oxoazetidine-1,2-dicarboxamide], the IC50 was in the range of 0.01 to 0.1 µM. As for `CC[C@@H](NC(=O)N1C(=O)[C@H](Cc2cc(C)nc(N)c2)[C@H]1C(=O)N(C)c1cnn(C)c1)c1cccc(F)c1F` [Compound 1-174, (2S,3R)-3-((2-amino-6-methylpyridin-4-yl)methyl)-N2-(1-methyl-1H-pyrazol-4-yl)-N1-((R)-1-(2,3-difluorophenyl)propyl)-N2-methyl-4-oxoazetidine-1,2-dicarboxamide], the IC50 is 0.01 to 0.1 µM.

Regarding `CC[C@@H](NC(=O)N1C(=O)[C@H](Cc2cc(C)nc(N)c2)[C@H]1C(=O)N(C)c1cnn(C)c1)c1ccc(C)c(C)c1` [Compound 1-175, (2S,3R)-3-((2-amino-6-methylpyridin-4-yl)methyl)-N2-(1-methyl-1H-pyrazol-4-yl)-N1-((R)-1-(3,4-dimethylphenyl)propyl)-N2-methyl-4-oxoazetidine-1,2-dicarboxamide], the IC50 is less than 0.01 µM. The value for `CC[C@@H](NC(=O)N1C(=O)[C@H](Cc2cc(C)nc(N)c2)[C@H]1C(=O)N(C)c1cnn(C)c1)c1cc(C)ccc1C` [Compound 1-176, (2S,3R)-3-((2-amino-6-methylpyridin-4-yl)methyl)-N2-(1-methyl-1H-pyrazol-4-yl)-N1-((R)-1-(2,5-dimethylphenyl)propyl)-N2-methyl-4-oxoazetidine-1,2-dicarboxamide] was 0.01 to 0.1 µM.
